Experimental data taken from patent publication US8722910B2, “Diyne compositions” (Evolva AG, priority 2009, dated 2014).
Converted amounts (≈) assume the structure as drawn. Like-named read-outs stand apart in the source and are kept apart here.

Assays:
C. albicans SC5314 = assay: MIC versus reference Candida strains (broth micro dilution); format: cell-based
C. tropicalis ATCC-750 = assay: as above; set-up: MICs (100% inhibition): unit not given beside the values; details: for MIC: Candida tropicalis
C. glabrata ATCC-90030 = assay: as above; set-up: MICs (100% inhibition): unit not given beside the values; details: for MIC: Nakaseomyces glabratus
T. rubrum = assay: In vitro antifungal activity vs. dermatophytes (MIC/MFC); format: cell-based; details: T. rubrum (n = 15)
C. albicans = assay: Time course of the fungicidal effect; format: cell-based; details: after 3 hours of incubation
Description: Samples were removed periodically, filtered, washed and plated onto nutrient agar.

Trichophyton tonsurans = assay: In vitro antifungal activity vs. dermatophytes (MIC/MFC); format: cell-based; details: Trichophyton tonsurans (n = 15)
C. albicans ATCC-90028 = assay: MIC versus reference Candida strains (broth micro dilution); set-up: MICs (100% inhibition): unit not given beside the values; details: for MIC: Candida albicans
C. lusitaniae = assay: In vitro antifungal activity vs. yeasts (MIC/MFC); format: cell-based; details: Clavispora lusitaniae, C. lusitaniae (n = 1)
C. krusei ATCC-6258 = assay: MIC versus reference Candida strains (broth micro dilution); set-up: MICs (100% inhibition): unit not given beside the values; details: for MIC: Pichia kudriavzevii
M. vanbreuseghemii = assay: In vitro antifungal activity vs. dermatophytes (MIC/MFC); format: cell-based; details: M. vanbreuseghemii (n = 1)
C. glabrata = assay: In vitro antifungal activity vs. yeasts (MIC/MFC); format: cell-based; details: Nakaseomyces glabratus, C. glabrata (n = 1)
C. guilliermondii = assay: In vitro antifungal activity vs. yeasts (MIC/MFC); format: cell-based; details: Meyerozyma guilliermondii, C. guilliermondii (n = 1)
Microsporum canis = assay: In vitro antifungal activity vs. dermatophytes (MIC/MFC); format: cell-based; details: Microsporum canis (n = 15)
[1] = tested on: C. parapsilosis ATCC-22019; assay: MIC versus reference Candida strains (broth micro dilution); set-up: MICs (100% inhibition): unit not given beside the values; details: for MIC: Lodderomyces parapsilosis
M. gallinae = assay: In vitro antifungal activity vs. dermatophytes (MIC/MFC); format: cell-based; details: M. gallinae (n = 1)
[2] = tested on: C. parapsilosis ATCC-90018; assay: MIC versus reference Candida strains (broth micro dilution); set-up: MICs (100% inhibition): unit not given beside the values; details: for MIC: Lodderomyces parapsilosis
C. albicans ATCC-24433 = assay: as above; set-up: MICs (100% inhibition): unit not given beside the values; details: for MIC: Candida albicans
H. capsulatum = assay: microbe, parasite or virus in culture; format: cell-based
[3] = Stability of diyne salts on storage (HPLC content); format: physicochemical; details: crystalline solid
Procedure: Potassium (Z)-14-(furan-2-yl)tetradeca-9-en-11,13-diynoate was kept as a crystalline solid for 6 month at 2-8° C. The content of potassium (Z)-14-(furan-2-yl)tetradeca-9-en-11,13-diynoate was determined by HPLC against a reference sample kept at −20° C. After 6 months of storage characteristics such as colour, water content, XRPD profile, of the solid had not changed and it was still a beige solid. […] Also no change in the impurity profile was observed after 6 months storage.
Potassium (Z)-14-(furan-2-yl)tetradeca-9-en-11,13-diynoate was also kept as a crystalline solid for 6 month at 25° C., 60% RH. Analysis was performed as described above. After 6 months of storage characteristics of the solid has not changed and it was still a beige solid. […] Also no change in the impurity profile was observed after 6 months storage.
Potassium (Z)-14-(furan-2-yl)tetradeca-9-en-11,13-diynoate was also kept as a crystalline solid for 6 month at 40° C., 75% RH. Analysis was performed as described above. After 6 months of storage the appearance of the solid had changed to a brown solid. Furthermore, a decrease in the content of potassium (Z)-14-(furan-2-yl)tetradeca-9-en-11,13-diynoate to 96% was observed as analysed by HPLC.
Sodium (Z)-14-(furan-2-yl)tetradeca-9-en-11,13-diynoate was kept as an amorphous solid at room temperature. […] Furthermore the salt was dissolved in an aqueous solution and already after few days the content of sodium (Z)-14-(furan-2-yl)tetradeca-9-en-11,13-diynoate was reduced by 35%, thus proving strong instability of the amorphous salt form.

Structure (SMILES): O=C(O)CCCCCCC/C=C\C#CC#Cc1ccco1 [Compound III″]
- MIC (C. albicans SC5314): 0.5 ng/mL (≈ 1.76 nM)
- MIC (C. tropicalis ATCC-750; ATCC750): 2.5 ng/mL (≈ 8.79 nM)
- MIC (C. glabrata ATCC-90030; ATCC90030): 10 ng/mL (≈ 35.2 nM)
- MIC90/MIC range 48 h (T. rubrum; MIC90, 48 h): <0.06 ng/mL
- MIC (T. rubrum; Trichophyton rubrum, 96 h, 35° C., 4 days): < 0.06 ng/mL
- MFC (T. rubrum; Trichophyton rubrum): < 0.06 ng/mL
- reduction in C. albicans CFUs (C. albicans): > 3 log
- MIC (Trichophyton tonsurans; 96 h, 35° C., 4 days): < 0.06 ng/mL
- MFC (Trichophyton tonsurans): < 0.06 ng/mL
- MIC90/MIC range 48 h (Trichophyton tonsurans; MIC90, 48 h): <0.06 ng/mL
- MIC (C. albicans ATCC-90028; ATCC90028): 1.25 ng/mL (≈ 4.4 nM)
- MFC (C. lusitaniae): < 0.06 ng/mL
- MIC (C. lusitaniae; 90% inhibition endpoint, read-out: MIC): < 0.06 ng/mL
- MIC (C. krusei ATCC-6258; ATCC6258): 10 ng/mL (≈ 35.2 nM)
- MIC (M. vanbreuseghemii; 96 h, 35° C., 4 days): 30 ng/mL (≈ 106 nM)
- MFC (M. vanbreuseghemii): 16000 ng/mL (≈ 56300 nM)
- MIC90/MIC range 48 h (M. vanbreuseghemii; 48 h): 30 ng/mL (≈ 106 nM)
- MFC (C. glabrata): 500 ng/mL (≈ 1760 nM)
- MIC (C. glabrata; 90% inhibition endpoint): 8 ng/mL (≈ 28.1 nM)
- MFC (C. guilliermondii): 0.5 ng/mL (≈ 1.76 nM)
- MIC (C. guilliermondii; 90% inhibition endpoint): < 0.06 ng/mL
- MIC (Microsporum canis; 96 h, 35° C., 4 days): < 0.06 ng/mL
- MFC (Microsporum canis): 0.5 ng/mL (≈ 1.76 nM)
- MIC90/MIC range 48 h (Microsporum canis; MIC90, 48 h): <0.06 ng/mL
- MIC ([1]; ATCC22019): 2560 ng/mL (≈ 9000 nM)
- MIC (M. gallinae; 96 h, 35° C., 4 days): < 0.06 ng/mL
- MFC (M. gallinae): 4000 ng/mL (≈ 14100 nM)
- MIC90/MIC range 48 h (M. gallinae; 48 h): <0.06 ng/mL
- MIC ([2]; ATCC90018): 2560 ng/mL (≈ 9000 nM)
- MIC (C. albicans ATCC-24433; ATCC24433): 1.25 ng/mL (≈ 4.4 nM)

Structure (SMILES): O=C([O-])CCCCCCC/C=C\C#CC#Cc1ccco1.[K+] [Compound IV″, potassium (Z)-14-(furan-2-yl)tetradeca-9-en-11,13-diynoate]
- MIC (C. albicans SC5314): 1.25 ng/mL
- MIC breakpoints (C. tropicalis ATCC-750; C. tropicalis ATCC 750, CLSI M27-A3, growth inhibition of 100%, 35° C., 24 hrs): 7.5 ng/mL
- MICs (100% inhibition) (C. tropicalis ATCC-750; C. tropicalis ATCC 750, NCCLS M27A, 35° C., 24 hrs): 7.5
- MIC (C. tropicalis ATCC-750; ATCC750): 5 ng/mL
- MIC (C. tropicalis ATCC-750; ATCC750, read-out: minimal inhibitory concentrations): 7.5 ng/mL
- MIC breakpoints (C. glabrata ATCC-90030; C. glabrata ATCC 90030, CLSI M27-A3, growth inhibition of 100%, 35° C., 24 hrs): 60 ng/mL
- MICs (100% inhibition) (C. glabrata ATCC-90030; C. glabrata ATCC 90030, NCCLS M27A, 35° C., 24 hrs): 60
- MIC (C. glabrata ATCC-90030; ATCC90030): 20 ng/mL
- MIC (C. glabrata ATCC-90030; ATCC90030, read-out: minimal inhibitory concentrations): 60 ng/mL
- MIC90/MIC range 48 h (H. capsulatum; H. capsulatum (n = 20), MIC90, 48 h): 30 ng/mL
- MIC90 (H. capsulatum; Histoplasma capsulatum, 120 h): 30 ng/mL
- content after storage (HPLC) ([3]; 6 month at 2-8° C.): had not significantly changed
- content after storage (HPLC) ([3]; 6 month at 25° C., 60% RH): had not changed significantly
- content after storage (HPLC), decrease to ([3]; 6 month at 40° C., 75% RH): 96%
- MIC breakpoints (C. albicans ATCC-90028; C. albicans ATCC 90028, CLSI M27-A3, growth inhibition of 100%, 35° C., 24 hrs): 5 ng/mL
- MICs (100% inhibition) (C. albicans ATCC-90028; C. albicans ATCC 90028, NCCLS M27A, 35° C., 24 hrs): 5
- MIC (C. albicans ATCC-90028; ATCC90028, read-out: minimal inhibitory concentrations): 5 ng/mL
- MIC breakpoints (C. krusei ATCC-6258; C. krusei ATCC 6258, CLSI M27-A3, growth inhibition of 100%, 35° C., 24 hrs): 60 ng/mL
- MICs (100% inhibition) (C. krusei ATCC-6258; C. krusei ATCC 6258, NCCLS M27A, 35° C., 24 hrs): 60
- MIC (C. krusei ATCC-6258; ATCC6258): 20 ng/mL
- MIC (C. krusei ATCC-6258; ATCC6258, read-out: minimal inhibitory concentrations): 60 ng/mL
- MIC breakpoints ([1]; C. parapsilosis ATCC 22019, CLSI M27-A3, growth inhibition of 100%, 35° C., 24 hrs): 10240 ng/mL
- MICs (100% inhibition) ([1]; C. parapsilosis ATCC 22019, NCCLS M27A, 35° C., 24 hrs): 10240
- MIC ([1]; ATCC22019, read-out: minimal inhibitory concentrations): 10200 ng/mL
- MIC breakpoints ([2]; C. parapsilosis ATCC 90018, CLSI M27-A3, growth inhibition of 100%, 35° C., 24 hrs): >10240 ng/mL
- MICs (100% inhibition) ([2]; C. parapsilosis ATCC 90018, NCCLS M27A, 35° C., 24 hrs): >10240
- MIC ([2]; ATCC90018, read-out: minimal inhibitory concentrations): > 10200 ng/mL
- MIC breakpoints (C. albicans ATCC-24433; C. albicans ATCC 24433, CLSI M27-A3, growth inhibition of 100%, 35° C., 24 hrs): 2.5 ng/mL
- MICs (100% inhibition) (C. albicans ATCC-24433; C. albicans ATCC 24433, NCCLS M27A, 35° C., 24 hrs): 2.5
- MIC (C. albicans ATCC-24433; ATCC24433, read-out: minimal inhibitory concentrations): 2.5 ng/mL
